Assay results taken from ChEMBL document CHEMBL1909046, “DrugMatrix in vitro pharmacology data”.

What was measured:
[1] = biological target: T1, Alpha-1B adrenergic receptor (Rattus norvegicus, UniProt P15823); experiment: DRUGMATRIX: Alpha-1B adrenergic receptor radioligand binding (ligand: prazosin); assay type: cell membranes, Wistar, Liver, Membrane; settings: Not Active = under 50% inhibition at 10 µM; for Ki: read-out: Ki
T1 sequence (P15823 whole entry): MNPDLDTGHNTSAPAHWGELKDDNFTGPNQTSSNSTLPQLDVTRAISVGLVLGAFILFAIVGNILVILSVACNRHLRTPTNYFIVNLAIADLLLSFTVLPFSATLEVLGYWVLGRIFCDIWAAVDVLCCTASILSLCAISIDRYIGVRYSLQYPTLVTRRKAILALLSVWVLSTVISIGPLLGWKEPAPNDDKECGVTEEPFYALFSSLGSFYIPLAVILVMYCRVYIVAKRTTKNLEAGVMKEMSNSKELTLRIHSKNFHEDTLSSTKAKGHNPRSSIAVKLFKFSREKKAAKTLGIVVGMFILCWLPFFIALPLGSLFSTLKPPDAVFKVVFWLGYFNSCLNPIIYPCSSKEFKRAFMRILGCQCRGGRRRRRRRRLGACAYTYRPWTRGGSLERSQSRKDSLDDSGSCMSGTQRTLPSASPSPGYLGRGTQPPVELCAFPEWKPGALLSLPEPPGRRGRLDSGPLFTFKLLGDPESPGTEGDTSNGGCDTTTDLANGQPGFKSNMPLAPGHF

[2] = DRUGMATRIX: GABAA, Muscimol, Central radioligand binding (ligand: [3H] Muscimol); assay type: cell membranes, Rattus norvegicus, Wistar, Brain, Membrane; settings: Not Active = under 50% inhibition at 10 µM
[3] = DRUGMATRIX: Phorbol Ester radioligand binding (ligand: [3H] PDBu); assay type: cell membranes, Mus musculus, ICR, Brain, Membrane; settings: Not Active = under 50% inhibition at 10 µM
[4] = DRUGMATRIX: ATPase, Na+/K+ enzyme inhibition (substrate: ATP); assay type: tissue-based, Sus scrofa, Heart; settings: Not Active = under 50% inhibition at 10 µM
[5] = DRUGMATRIX: Tumor Necrosis Factor (TNF), Non-Selective radioligand binding (ligand: [125I] TNF-alpha); assay type: cell membranes, Membrane; settings: u-937; Not Active = under 50% inhibition at 10 µM
[6] = biological target: T2, Adenosine receptor A3 (Homo sapiens, UniProt P0DMS8); assay type: cell membranes, CHO-K1, Membrane; settings: cho-k1;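 note: radioligand binding assay with AB-MECA serving as the labeled ligand; in other assays of this panel Not Active means under 50% inhibition at 10 µM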
T2 sequence (P0DMS8 whole entry): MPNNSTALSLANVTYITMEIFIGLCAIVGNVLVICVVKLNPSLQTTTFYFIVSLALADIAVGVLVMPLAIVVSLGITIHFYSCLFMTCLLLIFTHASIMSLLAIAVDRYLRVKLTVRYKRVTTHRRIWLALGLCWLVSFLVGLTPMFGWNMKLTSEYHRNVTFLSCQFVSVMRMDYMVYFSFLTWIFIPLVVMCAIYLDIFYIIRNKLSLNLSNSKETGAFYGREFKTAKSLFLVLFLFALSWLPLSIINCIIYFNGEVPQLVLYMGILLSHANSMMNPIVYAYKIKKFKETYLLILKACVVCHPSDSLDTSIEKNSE

[7] = biological target: Sigma non-opioid intracellular receptor 1 (Homo sapiens, UniProt Q99720); experiment: DRUGMATRIX: Sigma1 radioligand binding (ligand: [3H] Haloperidol); assay type: cell membranes, Jurkat, Membrane; settings: Not Active = under 50% inhibition at 10 µM
[8] = DRUGMATRIX: Calcium Channel Type L, Phenylalkylamine radioligand binding (ligand: [3H] (-)-Desmethoxyverapamil (D-888)); assay type: cell membranes, Rattus norvegicus, Wistar, Brain, Membrane; settings: Not Active = under 50% inhibition at 10 µM
[9] = biological target: Matrix metalloproteinase-9 (Homo sapiens, UniProt P14780); assay type: cell-based;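 note: inhibition of isolated MMP-9 enzyme activity toward a synthetic peptide substrate, from the DrugMatrix protease screening panel; in other assays of this panel Not Active means under 50% inhibition at 10 µM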
[10] = biological target: T3, 5-hydroxytryptamine receptor 2C (Homo sapiens, UniProt P28335); experiment: DRUGMATRIX: Serotonin (5-Hydroxytryptamine) 5-HT2C radioligand binding (ligand: [3H] Mesulergine); assay type: cell membranes, CHO-K1, Membrane; settings: Not Active = under 50% inhibition at 10 µM
T3 sequence (P28335 whole entry): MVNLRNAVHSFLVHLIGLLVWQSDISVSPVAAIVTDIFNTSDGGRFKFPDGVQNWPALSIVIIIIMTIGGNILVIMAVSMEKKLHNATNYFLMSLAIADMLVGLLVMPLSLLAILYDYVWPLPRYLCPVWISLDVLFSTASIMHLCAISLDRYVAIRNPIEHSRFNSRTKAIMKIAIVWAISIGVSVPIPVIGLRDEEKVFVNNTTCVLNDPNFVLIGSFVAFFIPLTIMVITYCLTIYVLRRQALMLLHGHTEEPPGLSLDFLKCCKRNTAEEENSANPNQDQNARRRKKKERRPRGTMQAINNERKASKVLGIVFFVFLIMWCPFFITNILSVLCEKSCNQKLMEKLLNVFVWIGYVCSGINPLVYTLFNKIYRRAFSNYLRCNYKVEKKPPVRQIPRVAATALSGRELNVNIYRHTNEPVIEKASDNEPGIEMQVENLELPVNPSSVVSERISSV

[11] = DRUGMATRIX: Calcium Channel Type L, Dihydropyridine radioligand binding (ligand: [3H] Nitrendipine); assay type: cell membranes, Rattus norvegicus, Wistar, Cerebral cortex, Membrane; settings: Not Active = under 50% inhibition at 10 µM
[12] = biological target: T4, Calcitonin receptor (Homo sapiens, UniProt P30988); assay type: cell membranes, Membrane; settings: t47d; note: in other assays of this panel Not Active means under 50% inhibition at 10 µM
T4 sequence (P30988 whole entry): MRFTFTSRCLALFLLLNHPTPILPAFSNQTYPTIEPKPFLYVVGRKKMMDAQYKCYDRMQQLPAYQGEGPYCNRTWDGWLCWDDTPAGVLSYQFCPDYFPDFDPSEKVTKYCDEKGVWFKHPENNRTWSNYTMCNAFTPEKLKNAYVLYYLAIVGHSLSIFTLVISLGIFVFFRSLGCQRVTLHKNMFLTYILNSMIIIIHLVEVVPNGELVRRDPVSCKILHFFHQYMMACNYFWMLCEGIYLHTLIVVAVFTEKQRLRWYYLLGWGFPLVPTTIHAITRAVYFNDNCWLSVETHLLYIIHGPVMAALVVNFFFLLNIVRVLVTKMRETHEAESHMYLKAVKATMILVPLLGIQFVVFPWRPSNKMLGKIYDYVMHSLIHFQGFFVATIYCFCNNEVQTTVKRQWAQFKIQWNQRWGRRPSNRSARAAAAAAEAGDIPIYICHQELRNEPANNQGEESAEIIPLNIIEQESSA

[13] = biological target: Cytochrome P450 2D6 (Homo sapiens, UniProt P10635); settings: bti-tn-5b1-4; note: in other assays of this panel Not Active means under 50% inhibition at 10 µM
[14] = biological target: Cytochrome P450 2C9 (Homo sapiens, UniProt P11712); settings: bti-tn-5b1-4; note: in other assays of this panel Not Active means under 50% inhibition at 10 µM
Chain of Cytochrome P450 2C9 (P11712 whole entry): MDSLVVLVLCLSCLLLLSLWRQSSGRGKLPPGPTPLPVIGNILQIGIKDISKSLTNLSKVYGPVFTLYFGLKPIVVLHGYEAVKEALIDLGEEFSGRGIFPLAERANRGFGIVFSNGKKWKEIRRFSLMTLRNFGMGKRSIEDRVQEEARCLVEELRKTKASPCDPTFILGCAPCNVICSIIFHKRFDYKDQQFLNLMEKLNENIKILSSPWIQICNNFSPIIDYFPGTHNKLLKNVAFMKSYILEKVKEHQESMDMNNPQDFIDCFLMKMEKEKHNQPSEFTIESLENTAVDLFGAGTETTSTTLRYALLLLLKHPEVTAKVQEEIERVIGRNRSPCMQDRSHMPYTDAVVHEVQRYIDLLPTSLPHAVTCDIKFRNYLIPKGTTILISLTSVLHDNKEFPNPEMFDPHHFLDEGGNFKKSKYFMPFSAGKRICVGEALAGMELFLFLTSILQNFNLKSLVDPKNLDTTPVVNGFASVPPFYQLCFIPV

Chain of Matrix metalloproteinase-9 (P14780 whole entry): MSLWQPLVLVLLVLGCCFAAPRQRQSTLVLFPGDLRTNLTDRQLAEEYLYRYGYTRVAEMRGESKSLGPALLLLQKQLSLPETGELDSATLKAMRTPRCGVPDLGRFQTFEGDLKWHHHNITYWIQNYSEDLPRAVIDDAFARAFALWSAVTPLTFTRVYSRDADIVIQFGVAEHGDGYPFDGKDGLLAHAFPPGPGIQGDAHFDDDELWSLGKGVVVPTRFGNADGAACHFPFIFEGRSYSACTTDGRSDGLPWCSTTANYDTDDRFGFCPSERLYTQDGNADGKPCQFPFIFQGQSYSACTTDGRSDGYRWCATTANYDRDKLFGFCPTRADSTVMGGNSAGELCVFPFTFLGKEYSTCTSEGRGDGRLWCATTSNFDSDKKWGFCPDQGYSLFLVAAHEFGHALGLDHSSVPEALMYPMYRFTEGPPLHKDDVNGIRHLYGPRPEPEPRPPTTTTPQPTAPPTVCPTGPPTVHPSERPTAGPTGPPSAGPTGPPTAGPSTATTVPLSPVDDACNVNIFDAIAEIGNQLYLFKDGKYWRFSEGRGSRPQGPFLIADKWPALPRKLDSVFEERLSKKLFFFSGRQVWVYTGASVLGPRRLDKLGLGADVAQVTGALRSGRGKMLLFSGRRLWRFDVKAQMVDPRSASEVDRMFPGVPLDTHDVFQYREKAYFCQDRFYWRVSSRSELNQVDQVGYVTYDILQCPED
Chain of Cytochrome P450 2D6 (P10635 whole entry): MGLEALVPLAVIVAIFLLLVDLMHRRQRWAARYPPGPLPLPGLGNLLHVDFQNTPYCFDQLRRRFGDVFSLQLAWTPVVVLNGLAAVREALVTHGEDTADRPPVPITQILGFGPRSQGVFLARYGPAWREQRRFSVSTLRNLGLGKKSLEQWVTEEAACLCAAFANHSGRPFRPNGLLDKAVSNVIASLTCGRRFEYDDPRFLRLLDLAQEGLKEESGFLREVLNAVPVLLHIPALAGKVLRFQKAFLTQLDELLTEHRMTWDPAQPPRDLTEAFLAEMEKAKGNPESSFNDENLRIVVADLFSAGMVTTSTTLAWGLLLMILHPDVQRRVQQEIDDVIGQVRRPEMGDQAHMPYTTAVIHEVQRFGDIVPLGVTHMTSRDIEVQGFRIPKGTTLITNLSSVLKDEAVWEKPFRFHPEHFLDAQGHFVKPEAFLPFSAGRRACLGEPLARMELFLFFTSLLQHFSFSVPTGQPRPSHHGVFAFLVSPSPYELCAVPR
Chain of Sigma non-opioid intracellular receptor 1 (Q99720 whole entry): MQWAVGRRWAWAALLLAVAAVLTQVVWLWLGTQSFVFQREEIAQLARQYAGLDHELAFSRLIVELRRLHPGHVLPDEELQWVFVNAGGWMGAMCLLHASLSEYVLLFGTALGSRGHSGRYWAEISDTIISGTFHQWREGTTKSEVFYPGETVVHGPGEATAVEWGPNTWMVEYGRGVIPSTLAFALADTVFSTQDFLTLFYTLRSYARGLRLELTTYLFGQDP

SMILES | IC50 [1] | IC50 [2] | Ki [2] | IC50 [3] | Ki [3] | IC50 [4] | Ki [4] | IC50 [5] | Ki [5] | IC50 [6] | IC50 ([7]; jurkat) | IC50 [8] | Ki [8] | IC50 [9] | IC50 ([10]; cho-k1) | IC50 [11] | Ki [11] | IC50 [12] | IC50 [14] | Ki [14] | also measured
CC(C)NC[C@H](O)COc1cccc2[nH]ccc12 | Not Active | Not Active | Not Active | Not Active | Not Active | Not Active | Not Active | Not Active | Not Active | Not Active | Not Active | Not Active | Not Active | Not Active | Not Active | Not Active | Not Active | Not Active | – | – | –
O=c1cc(-c2ccccc2)oc2c1ccc1ccccc12 [ALPHA-NAPHTHOFLAVONE] | Not Active | Not Active | Not Active | Not Active | Not Active | Not Active | Not Active | Not Active | Not Active | Not Active | – | Not Active | Not Active | Not Active | Not Active | Not Active | Not Active | Not Active | Not Active | Not Active | IC50 [13]: Not Active; Ki [13]: Not Active
CCCCOC(=O)c1ccc(N)cc1 [BUTAMBEN] | Not Active | Not Active | Not Active | Not Active | Not Active | Not Active | Not Active | Not Active | Not Active | Not Active | Not Active | Not Active | Not Active | Not Active | Not Active | Not Active | Not Active | Not Active | – | – | –
O=C(O)c1cn(C2CC2)c2cc(N3CCNCC3)c(F)cc2c1=O [CIPROFLOXACIN] | Not Active | Not Active | Not Active | Not Active | Not Active | Not Active | Not Active | Not Active | Not Active | Not Active | Not Active | Not Active | Not Active | Not Active | Not Active | Not Active | Not Active | Not Active | – | – | –
CN(C)CCCC1(c2ccc(F)cc2)OCc2cc(C#N)ccc21 (stereo unspecified) [CITALOPRAM] | – | Not Active | Not Active | Not Active | Not Active | Not Active | Not Active | Not Active | Not Active | Not Active | – | – | – | Not Active | – | Not Active | Not Active | Not Active | Not Active | Not Active | IC50 ([1]; read-out: IC50): 3290 nM; Ki [1]: 1820 nM; IC50 [13]: Not Active; Ki [13]: Not Active; IC50 ([7]; read-out: IC50): 398 nM; Ki ([7]; read-out: Ki): 167 nM; IC50 ([8]; read-out: IC50): 1020 nM; Ki ([8]; read-out: Ki): 996 nM
Cc1ccccc1N1CCN(CCc2nnc3n2CCCC3)CC1 [DAPIPRAZOLE] | – | Not Active | Not Active | Not Active | Not Active | Not Active | Not Active | Not Active | Not Active | Not Active | Not Active | Not Active | Not Active | Not Active | – | Not Active | Not Active | Not Active | Not Active | Not Active | IC50 [13]: Not Active; Ki [13]: Not Active; IC50 ([10]; read-out: IC50): 625 nM; Ki ([10]; read-out: Ki): 327 nM
O=C1OCCN1/N=C/c1ccc([N+](=O)[O-])o1 [FURAZOLIDONE] | Not Active | Not Active | Not Active | Not Active | Not Active | Not Active | Not Active | Not Active | Not Active | Not Active | Not Active | Not Active | Not Active | Not Active | Not Active | Not Active | Not Active | Not Active | – | – | –
NCC(=O)O [GLYCINE] | Not Active | Not Active | Not Active | Not Active | Not Active | Not Active | Not Active | Not Active | Not Active | Not Active | Not Active | Not Active | Not Active | Not Active | Not Active | Not Active | Not Active | Not Active | – | – | –
CNCCC=C1c2ccccc2CCc2ccccc21 [NORTRIPTYLINE] | – | Not Active | Not Active | Not Active | Not Active | Not Active | Not Active | Not Active | Not Active | Not Active | Not Active | – | – | Not Active | – | Not Active | Not Active | Not Active | Not Active | Not Active | IC50 ([1]; read-out: IC50): 207 nM; Ki [1]: 114 nM; IC50 ([8]; read-out: IC50): 1890 nM; Ki ([8]; read-out: Ki): 1840 nM
